{"source": "patent US20080312169A1", "about": "“Cosmetic use of D-ribose” (priority 2007, published 2008)", "key": {"[1]": {"system": "normal human dermal fibroblasts (NHDF)", "assay": "Oxygen consumption (mitochondrial and cytoplasmic respiration) of NHDF in culture, BD Oxygen Biosensor System", "type": "cell-based", "conditions": "0.05% D-ribose, two hours of contact, six wells", "method": "The inventors measured the effect of D-ribose on mitochondrial and cytoplasmic respiration of normal human dermal fibroblasts (NHDF) in culture. The cells were cultivated at 37° C. under an atmosphere of 5% CO2, in a culture solution of DMEM supplemented with 10% bovine fetal serum. […] Thus, D-ribose augments the consumption of oxygen in the cells, and consequently, the metabolism of cutaneous cells and tissues."}, "[2]": {"system": "NHDF", "assay": "ATP production by NHDF in culture under conditions of hypoxia", "type": "cell-based, human", "conditions": "0.05% D-ribose, 24 h pretreatment, after six hours of severe hypoxia (oxygen<2%)", "method": "The inventors have measured the effect of D-ribose on the production of ATP by NHDF in culture, under conditions of hypoxia. The cells used were cultivated in flasks of normal human epidermal cells (NHDF) in a medium of DMEM with 10% fetal bovine serum, incubated at 37° C. in an atmosphere of 5% CO2, and 95% air until 80% confluent. On Day 1, a first measure of the level of ATP was determined on the non-treated, non-stressed NHDF. Two sets of six duplicates were 15 pretreated for 24 hours with 0.05% ribose or not treated as control. At Day 2, before the induction of hypoxia, one set of treated and control cells was harvested to measure the level of ATP. The cells of the second set were suspended, the medium renewed with DMEM with 10% fetal bovine serum with HEPES buffer in order to maintain the pH within physiological conditions during hypoxia and with EDTA in order to prevent the agglutination of the cells. The cells were held in an incubator held at 37° C., in which the atmosphere had been previously replaced by nitrogen. The cells were incubated for six hours in a condition of severe hypoxia (oxygen<2%) in the presence of 0.05% D-ribose versus the non-treated control. Recovery of the cells and measurement of the ATP was followed in the treated and control cells. […]"}}, "data": [{"smiles": "O=C[C@H](O)[C@H](O)[C@H](O)CO", "note": "[D-ribose]", "values": [{"measurement": "augmentation of cytoplasmic respiration over control", "setting": "[1]", "result": 37, "unit": "%"}, {"measurement": "augmentation of mitochondrial respiration over control", "setting": "[1]", "result": 31, "unit": "%"}, {"measurement": "recovery of the ATP levels, of the base levels", "setting": "[2]", "result": "about 19%"}]}]}
